The supplement of paper PMC10307832

Assays:
Experiment in all cases: relative viability (nuclei count vs DMSO), 5 days (fraction); higher = more cells survive
[1] = compound: CN(c1ncccc1CNc1nc(Nc2ccc3c(c2)CC(=O)N3)ncc1C(F)(F)F)S(C)(=O)=O
Method in brief: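 Lung cancer cell lines in 1536-well plates were exposed by pinning to five library-drug doses (not always all listed) √10 apart, following an overnight hold at 37 °C. MetaXpress counted Hoechst-stained nuclei from 4× images taken after 5 days without medium change. Viability is the median ratio of treated-well to vehicle-well nuclei across plates. Plates required control CV below 25% and at least one doubling.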

[2] = compound: CN(c1ncccc1CNc1nc(Nc2ccc3c(c2)CC(=O)N3)ncc1C(F)(F)F)S(C)(=O)=O + CC(=O)Nc1cccc(-n2c(=O)n(C3CC3)c(=O)c3c(Nc4ccc(I)cc4F)n(C)c(=O)c(C)c32)c1 [Trametinib] (partner 0.02 µM)
Method in brief: (§1)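 Nuclei were stained with Hoechst during a one-step fixation (final 0.05% Triton X-100, 1% formaldehyde, 1 ug/ml Hoechst) carried out 5 days after dosing, then counted on 4× images. The cells, lung cancer lines in 1536-well plates, had been dosed by pin tool the day after seeding with one drug alone or a fixed anchor-drug dose plus five library-drug doses (not always all listed) in √10 steps. Relative viability is the nuclei count in treated wells divided by that in vehicle wells, and each value is the median of duplicate plates.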

[3] = compound: CN(c1ncccc1CNc1nc(Nc2ccc3c(c2)CC(=O)N3)ncc1C(F)(F)F)S(C)(=O)=O + CC(=O)c1c(C)c2cnc(Nc3ccc(N4CCNCC4)cn3)nc2n(C2CCCC2)c1=O [Palbociclib] (partner 0.5 µM)
Method in brief: as §1

[4] = compound: CN(c1ncccc1CNc1nc(Nc2ccc3c(c2)CC(=O)N3)ncc1C(F)(F)F)S(C)(=O)=O + CCNC(=O)c1noc(-c2cc(C(C)C)c(O)cc2O)c1-c1ccc(CN2CCOCC2)cc1 [Luminespib] (partner 0.01 µM)
Method in brief: as §1

[5] = compound: CN(c1ncccc1CNc1nc(Nc2ccc3c(c2)CC(=O)N3)ncc1C(F)(F)F)S(C)(=O)=O + COc1cccc2cc(-c3nc([C@H]4CC[C@H](C(=O)O)CC4)n4ncnc(N)c34)[nH]c12 [OSI-027] (partner 0.5 µM)
Method in brief: as §1

[6] = compound: CN(c1ncccc1CNc1nc(Nc2ccc3c(c2)CC(=O)N3)ncc1C(F)(F)F)S(C)(=O)=O + Cc1cc(Nc2cc(N3CCN(C)CC3)nc(Sc3ccc(NC(=O)C4CC4)cc3)n2)n[nH]1 [Tozasertib] (partner 0.1 µM)
Method in brief: as §1

[7] = compound: CN(c1ncccc1CNc1nc(Nc2ccc3c(c2)CC(=O)N3)ncc1C(F)(F)F)S(C)(=O)=O + Cc1nc(Nc2ncc(C(=O)Nc3c(C)cccc3Cl)s2)cc(N2CCN(CCO)CC2)n1 [Dasatinib] (partner 0.075 µM)
Method in brief: as §1

[8] = compound: CN(c1ncccc1CNc1nc(Nc2ccc3c(c2)CC(=O)N3)ncc1C(F)(F)F)S(C)(=O)=O + N=C(N)NC(=N)NCCc1ccccc1 [Phenformin] (partner 250 µM)
Method in brief: as §1

[9] = compound: CN(c1ncccc1CNc1nc(Nc2ccc3c(c2)CC(=O)N3)ncc1C(F)(F)F)S(C)(=O)=O + NC(=O)Nc1cc(-c2cccc(F)c2)sc1C(=O)N[C@H]1CCCNC1 [AZD7762] (partner 0.2 µM)
Method in brief: as §1

[10] = compound: CN(c1ncccc1CNc1nc(Nc2ccc3c(c2)CC(=O)N3)ncc1C(F)(F)F)S(C)(=O)=O + Nc1nc2[nH]cc(CCc3ccc(C(=O)N[C@@H](CCC(=O)O)C(=O)O)cc3)c2c(=O)[nH]1 [Pemetrexed] (partner 0.2 µM)
Method in brief: as §1

[11] = compound: CN(c1ncccc1CNc1nc(Nc2ccc3c(c2)CC(=O)N3)ncc1C(F)(F)F)S(C)(=O)=O + Nc1ncn([C@H]2C[C@H](O)[C@@H](CO)O2)c(=O)n1 [Decitabine] (partner 2 µM)
Method in brief: as §1

[12] = compound: CN(c1ncccc1CNc1nc(Nc2ccc3c(c2)CC(=O)N3)ncc1C(F)(F)F)S(C)(=O)=O + O=C(CCCCCCC(=O)Nc1ccccc1)NO [Vorinostat] (partner 1 µM)
Method in brief: as §1

[13] = compound: CN(c1ncccc1CNc1nc(Nc2ccc3c(c2)CC(=O)N3)ncc1C(F)(F)F)S(C)(=O)=O + O=C(c1cc(Cc2n[nH]c(=O)c3ccccc23)ccc1F)N1CCN(C(=O)C2CC2)CC1 [Olaparib] (partner 8 µM)
Method in brief: as §1

[14] = compound: CN(c1ncccc1CNc1nc(Nc2ccc3c(c2)CC(=O)N3)ncc1C(F)(F)F)S(C)(=O)=O + COc1cc2c(Oc3ccc(NC(=O)C4(C(=O)Nc5ccc(F)cc5)CC4)cc3F)ccnc2cc1OCCCN1CCOCC1 [Foretinib] (partner 0.25 µM)
Method in brief: as §1

NCI-H522 showed a relative viability ([1]; 0.01 µM) of 0.916, a relative viability ([1]; 0.03162 µM) of 0.918 and a relative viability ([1]; 0.1 µM) of 0.996. The relative viability ([1]; 0.3162 µM) was 1, the relative viability ([1]; 1 µM) was 1.02 and the relative viability ([2]; first compound 0.01 µM) was 0.73. The relative viability ([2]; first compound 0.03162 µM) was 0.813, the relative viability ([2]; first compound 0.1 µM) was 0.698 and the relative viability ([2]; first compound 0.3162 µM) was 0.812. It also gave a relative viability ([2]; first compound 1 µM) of 0.705, a relative viability ([3]; first compound 0.01 µM) of 1.06 and a relative viability ([3]; first compound 0.03162 µM) of 1.01. For the same cell line, the relative viability ([3]; first compound 0.1 µM) was 1.08, the relative viability ([3]; first compound 0.3162 µM) was 1.15 and the relative viability ([3]; first compound 1 µM) was 0.752. For the same cell line, the relative viability ([4]; first compound 0.01 µM) was 1.17, the relative viability ([4]; first compound 0.03162 µM) was 1.2 and the relative viability ([4]; first compound 0.1 µM) was 1.17. It also gave a relative viability ([4]; first compound 0.3162 µM) of 1.14, a relative viability ([4]; first compound 1 µM) of 1.15 and a relative viability ([5]; first compound 0.01 µM) of 0.717. It also gave a relative viability ([5]; first compound 0.03162 µM) of 0.703, a relative viability ([5]; first compound 0.1 µM) of 0.726 and a relative viability ([5]; first compound 0.3162 µM) of 0.742. It also gave a relative viability ([5]; first compound 1 µM) of 0.798, a relative viability ([6]; first compound 0.01 µM) of 0.542 and a relative viability ([6]; first compound 0.03162 µM) of 0.447. The relative viability ([6]; first compound 0.1 µM) was 0.469, the relative viability ([6]; first compound 0.3162 µM) was 0.511 and the relative viability ([6]; first compound 1 µM) was 0.61. The relative viability ([7]; first compound 0.01 µM) was 0.889, the relative viability ([7]; first compound 0.03162 µM) was 0.832 and the relative viability ([7]; first compound 0.1 µM) was 0.95. The relative viability ([7]; first compound 0.3162 µM) was 0.725, the relative viability ([7]; first compound 1 µM) was 0.979 and the relative viability ([8]; first compound 0.01 µM) was 0.664. The relative viability ([8]; first compound 0.03162 µM) was 0.645, the relative viability ([8]; first compound 0.1 µM) was 0.629 and the relative viability ([8]; first compound 0.3162 µM) was 0.819. The relative viability ([8]; first compound 1 µM) was 0.696, the relative viability ([9]; first compound 0.01 µM) was 0.798 and the relative viability ([9]; first compound 0.03162 µM) was 0.979. It also gave a relative viability ([9]; first compound 0.1 µM) of 0.737, a relative viability ([9]; first compound 0.3162 µM) of 0.87 and a relative viability ([9]; first compound 1 µM) of 0.764. It also gave a relative viability ([10]; first compound 0.01 µM) of 1.21, a relative viability ([10]; first compound 0.03162 µM) of 0.923 and a relative viability ([10]; first compound 0.1 µM) of 1.03. The relative viability ([10]; first compound 0.3162 µM) was 0.899, the relative viability ([10]; first compound 1 µM) was 1.06 and the relative viability ([11]; first compound 0.01 µM) was 0.553. It also gave a relative viability ([11]; first compound 0.03162 µM) of 0.685, a relative viability ([11]; first compound 0.1 µM) of 0.649 and a relative viability ([11]; first compound 0.3162 µM) of 0.644. It also gave a relative viability ([11]; first compound 1 µM) of 0.637, a relative viability ([12]; first compound 0.01 µM) of 0.906 and a relative viability ([12]; first compound 0.03162 µM) of 1.06. For the same cell line, the relative viability ([12]; first compound 0.1 µM) was 0.919, the relative viability ([12]; first compound 0.3162 µM) was 0.973 and the relative viability ([12]; first compound 1 µM) was 0.961. For the same cell line, the relative viability ([13]; first compound 0.01 µM) was 0.55, the relative viability ([13]; first compound 0.03162 µM) was 0.594 and the relative viability ([13]; first compound 0.1 µM) was 0.575. It also gave a relative viability ([13]; first compound 0.3162 µM) of 0.693 and a relative viability ([13]; first compound 1 µM) of 0.763.

In the case of NCI-H1623, the relative viability ([1]; 0.01 µM) is reported as 0.733, the relative viability ([1]; 0.03162 µM) is reported as 1.07 and the relative viability ([1]; 0.1 µM) is reported as 0.92. It also gave a relative viability ([1]; 0.3162 µM) of 0.968, a relative viability ([1]; 1 µM) of 0.963 and a relative viability ([4]; first compound 0.03162 µM) of 0.59. The relative viability ([4]; first compound 0.1 µM) was 0.503, the relative viability ([4]; first compound 0.3162 µM) was 0.514 and the relative viability ([4]; first compound 1 µM) was 0.429. The relative viability ([14]; first compound 0.01 µM) was 0.798, the relative viability ([14]; first compound 0.03162 µM) was 0.905 and the relative viability ([14]; first compound 0.1 µM) was 0.974. For the same cell line, the relative viability ([14]; first compound 0.3162 µM) was 0.882, the relative viability ([14]; first compound 1 µM) was 0.826 and the relative viability ([5]; first compound 0.01 µM) was 0.418. For the same cell line, the relative viability ([5]; first compound 0.03162 µM) was 0.423, the relative viability ([5]; first compound 0.1 µM) was 0.428 and the relative viability ([5]; first compound 0.3162 µM) was 0.435. The relative viability ([5]; first compound 1 µM) was 0.462, the relative viability ([6]; first compound 0.03162 µM) was 0.452 and the relative viability ([6]; first compound 0.1 µM) was 0.383. The relative viability ([6]; first compound 0.3162 µM) was 0.447, the relative viability ([6]; first compound 1 µM) was 0.428 and the relative viability ([7]; first compound 0.03162 µM) was 0.514. It also gave a relative viability ([7]; first compound 0.1 µM) of 0.623, a relative viability ([7]; first compound 0.3162 µM) of 0.51 and a relative viability ([7]; first compound 1 µM) of 0.528. It also gave a relative viability ([8]; first compound 0.03162 µM) of 0.571, a relative viability ([8]; first compound 0.1 µM) of 0.626 and a relative viability ([8]; first compound 0.3162 µM) of 0.568. For the same cell line, the relative viability ([8]; first compound 1 µM) was 0.593.
